Some test systems named below: KM12; M14; CCRF-CEM; SK-OV-3; RXF 393; SK-MEL-2; SK-MEL-5; SW-620; K562; TK-10; NCI-H460; Hs-578T; MDA-MB-435; RPMI-8226; PC-3; SF-268; A498; MDA-N; DU-145.
Common to all, as to assay: growth of human tumour cells (NCI), 48 h

Molecules are shown by their SMILES.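 Dose response: 5 concentrations. Exposure: 48 h. Format: 96-well plates. Endpoint: linear interpolation; highest concentration if not reached. GI50 marks 50% less growth.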 Activity calls are given as the source filed them. Rule as the data show it: active = GI50 up to about 1.1 µM and inactive = higher. Positions of bridges follow the written chain, without caps; N, C: chain ends. Residues, ends and D or L forms follow the SMILES beside them. Peptide text beside a SMILES is read from it.

As to `CN(C)CCSc1cccc(-c2cc(-c3cccc(SCCN(C)C)c3)nc(SCCN(C)C)n2)c1`, the GI50 is 1.66 µM (inactive) in the experiment with KM12; 1.62 µM (inactive) with M14; 1.69 µM (inactive) in the experiment with CCRF-CEM; 30.1 µM (inactive) in the experiment on SK-OV-3; 1.35 µM (inactive) with RXF 393; 7.96 µM (inactive) in the experiment with SK-MEL-2. The GI50 in the experiment with SK-MEL-5 is 1.55 µM (inactive); in the experiment with SW-620, 1.87 µM (inactive); in the experiment with K562, 1.49 µM (inactive); in the experiment on TK-10, 2.88 µM (inactive); in the experiment on NCI-H460, 1.85 µM (inactive).

`Cc1ccc(/N=N/c2c(O)c(C(=O)O)cc3ccccc23)cc1C`: the GI50 in the experiment with KM12 was > 100 µM (inactive); with M14 it was > 100 µM (inactive); in the experiment with CCRF-CEM, > 100 µM (inactive); in the experiment on Hs-578T, 42.3 µM (inactive); in the experiment on SK-OV-3, > 100 µM (inactive); in the experiment with RXF 393, > 100 µM (inactive). Moreover, the GI50 was > 100 µM (inactive) with MDA-MB-435; > 100 µM (inactive) with RPMI-8226; > 100 µM (inactive) with SK-MEL-2; > 100 µM (inactive) with SK-MEL-5; > 100 µM (inactive) with SW-620; 82.6 µM (inactive) in the experiment with K562. The GI50 with PC-3, in the experiment with SF-268, in the experiment on TK-10 and in the experiment on NCI-H460 was > 100 µM (inactive) each time.

On to `O=C(COc1ccc(OCC(=O)N2C(=O)CS/C2=N\c2ccccc2)cc1)N1C(=O)CS/C1=N\c1ccccc1`, for which the GI50 in the experiment with KM12 is 15.3 µM (inactive); with M14 it was 18.6 µM (inactive); in the experiment with SK-OV-3 it was 48.5 µM (inactive); with RXF 393 it was 30.3 µM (inactive); in the experiment with MDA-MB-435, 23.7 µM (inactive); in the experiment on RPMI-8226, 22.5 µM (inactive). Further, the GI50 in the experiment with A498 is 60 µM (inactive); in the experiment with SK-MEL-2, 25.9 µM (inactive); with SK-MEL-5, 11.6 µM (inactive); with MDA-N, 20.7 µM (inactive); in the experiment with SW-620, 47.9 µM (inactive); in the experiment with DU-145, 30.8 µM (inactive). Moreover, the GI50 was 5.9 µM (inactive) with K562; 14.8 µM (inactive) in the experiment on PC-3; 27.5 µM (inactive) in the experiment on SF-268; 56.9 µM (inactive) with TK-10; 29 µM (inactive) with NCI-H460.

On to `Cc1cc(N(CCC#N)CCC#N)ccc1/N=N/c1ccc(S(N)(=O)=O)cc1`, for which the GI50 with KM12, with M14, in the experiment with CCRF-CEM, in the experiment on SK-OV-3, in the experiment with RXF 393 and in the experiment on RPMI-8226 was > 100 µM (inactive) in each case. Also, the GI50 with A498, in the experiment on SK-MEL-2, with SK-MEL-5, with SW-620, in the experiment with K562 and in the experiment with SF-268 was > 100 µM (inactive) in each case. The GI50 in the experiment on TK-10 is > 100 µM (inactive).

As for `CN1C(=O)N(C)C2(CCN(CCCCCCF)CC2)C1=O`, the GI50 with KM12 is > 100 µM (inactive); with M14, > 100 µM (inactive); in the experiment with CCRF-CEM, > 100 µM (inactive); with SK-OV-3 it was > 100 µM (inactive); with RXF 393, > 100 µM (inactive); with MDA-MB-435, 26 µM (inactive). In addition, the GI50 in the experiment on RPMI-8226, with SK-MEL-5, in the experiment with MDA-N, with SW-620, with DU-145 and with K562 was > 100 µM (inactive) throughout. For the same molecule, the GI50 with PC-3, with SF-268 and with TK-10 was > 100 µM (inactive) each time.

`C=C1C(=O)OC2CC(C)C(C(CC(C)=O)OC(C)=O)=CCC12` (configuration not stated): the GI50 with KM12 is 18.6 µM (inactive); in the experiment on M14, 11 µM (inactive); with CCRF-CEM it was 2.61 µM (inactive); in the experiment with Hs-578T, > 100 µM (inactive); with SK-OV-3, 37.9 µM (inactive); with RXF 393 it was 15.9 µM (inactive). Besides, the GI50 in the experiment with MDA-MB-435 is 16.3 µM (inactive); in the experiment with RPMI-8226, 3.87 µM (inactive); in the experiment with A498, 18.7 µM (inactive); with SK-MEL-2, 18 µM (inactive); with SK-MEL-5, 14.2 µM (inactive); with SW-620, 3.03 µM (inactive). For the same molecule, the GI50 in the experiment on DU-145 is 16.5 µM (inactive); in the experiment on K562 it was 3.24 µM (inactive); in the experiment on PC-3, 19.3 µM (inactive); in the experiment on SF-268, 22.5 µM (inactive); with TK-10 it was 17.3 µM (inactive); in the experiment on NCI-H460, 17 µM (inactive).

Regarding `O=C1c2ccccc2C(=O)N1CC(O)COc1cccc2ccccc12` (configuration not stated), the GI50 is > 100 µM (inactive) in the experiment on M14; > 100 µM (inactive) in the experiment on CCRF-CEM; > 100 µM (inactive) in the experiment on SK-OV-3; > 100 µM (inactive) with MDA-MB-435; > 100 µM (inactive) in the experiment on RPMI-8226; 73.5 µM (inactive) in the experiment on A498. The GI50 is 63.5 µM (inactive) in the experiment with SK-MEL-5; > 100 µM (inactive) in the experiment with MDA-N; > 100 µM (inactive) with SW-620; > 100 µM (inactive) in the experiment on DU-145; > 100 µM (inactive) with K562; > 100 µM (inactive) in the experiment on PC-3. Further, the GI50 was 85.3 µM (inactive) in the experiment with SF-268, > 100 µM (inactive) in the experiment on TK-10 and > 100 µM (inactive) in the experiment on NCI-H460.

On to `CCCOc1ccc2sc(NC(=O)c3cc([N+](=O)[O-])cc([N+](=O)[O-])c3)nc2c1`, for which the GI50 with KM12 is 26.8 µM (inactive); with M14, 50.4 µM (inactive); in the experiment with CCRF-CEM it was 30.3 µM (inactive); with Hs-578T, 13.7 µM (inactive); in the experiment with SK-OV-3, 36.5 µM (inactive); in the experiment on RXF 393 it was 48.4 µM (inactive). For the same molecule, the GI50 was 36.7 µM (inactive) in the experiment on MDA-MB-435; 31.8 µM (inactive) with RPMI-8226; 23.7 µM (inactive) with A498; 50.2 µM (inactive) with SK-MEL-2; 17 µM (inactive) in the experiment on SK-MEL-5; 31 µM (inactive) in the experiment on SW-620. The GI50 was 60.7 µM (inactive) in the experiment with DU-145; 65.5 µM (inactive) with K562; 28.4 µM (inactive) with PC-3; 43.8 µM (inactive) in the experiment on SF-268; 28.1 µM (inactive) in the experiment with TK-10; 50.4 µM (inactive) in the experiment on NCI-H460.

Turning to `Cc1nn(C(=O)Cc2ccccc2)c2c1C(c1ccc(Cl)cc1)SC(=N)N2` (configuration not stated), the GI50 in the experiment with KM12, with M14, with CCRF-CEM, in the experiment with Hs-578T, in the experiment on SK-OV-3 and with MDA-MB-435 was > 100 µM (inactive) throughout. Besides, the GI50 in the experiment with RPMI-8226, in the experiment on A498, with SK-MEL-5, in the experiment with SW-620, with DU-145 and in the experiment with K562 was > 100 µM (inactive) each time. In addition, the GI50 with PC-3, with SF-268, in the experiment on TK-10 and in the experiment with NCI-H460 was > 100 µM (inactive) throughout.

`CC(=O)OC1CCC2(C)C(CCC3C2CCC2(C)C(c4ccc(=O)oc4)C(OC(C)=O)CC32O)C1` (configuration not stated): the GI50 in the experiment on KM12 was 0.0172 µM (active); in the experiment on CCRF-CEM, 0.0151 µM (active); with SK-OV-3 it was 0.0292 µM (active); with RXF 393, 0.0125 µM (active); in the experiment on RPMI-8226, 0.0148 µM (active); in the experiment on A498, 0.0156 µM (active). Further, the GI50 is 0.0258 µM (active) in the experiment with SK-MEL-2; 0.0164 µM (active) with SK-MEL-5; 0.0148 µM (active) in the experiment on SW-620; 0.0161 µM (active) in the experiment on K562; 0.0144 µM (active) in the experiment with SF-268; 0.0147 µM (active) with NCI-H460.

Take `COC(=O)C1CCC(=O)NCCCCC(NC(=O)C(N)CC(=O)O)C(=O)N1` (stereo not drawn) (H-Asp-Lys-Glu-OMe; lactam 2-3; configuration not given here): the GI50 in the experiment with KM12 is > 100 µM (inactive); in the experiment on M14 it was > 100 µM (inactive); in the experiment with CCRF-CEM, 32.4 µM (inactive); with Hs-578T, > 100 µM (inactive); in the experiment with SK-OV-3, > 100 µM (inactive); in the experiment on RXF 393, > 100 µM (inactive). Besides, the GI50 in the experiment on MDA-MB-435, with RPMI-8226, with SK-MEL-2, in the experiment with SK-MEL-5, with MDA-N and in the experiment with SW-620 was > 100 µM (inactive) throughout. The GI50 in the experiment with DU-145 was > 100 µM (inactive); in the experiment with K562, > 100 µM (inactive); in the experiment on PC-3 it was > 100 µM (inactive); in the experiment on SF-268, > 100 µM (inactive); in the experiment on TK-10, > 100 µM (inactive); with NCI-H460 it was 9.68 µM (inactive).

Turning to `CCC(C)C(NC(=O)C(NC(=O)C(CC(N)=O)NC(=O)CN)C(C)O)C(=O)NC(C(=O)NC(C)C(=O)NC(C(=O)NC(CCC(=O)O)C(=O)NC(CC(C)C)C(=O)NC(CC(=O)O)C(=O)NC(C(=O)NC(Cc1ccc(O)cc1)C(=O)N1CCCC1C(=O)O)C(C)O)C(C)C)C(C)C` (configuration not stated) (H-GNTIVAVELDTYP-OH; configuration not given here), the GI50 in the experiment with KM12, in the experiment on M14, with CCRF-CEM, in the experiment with Hs-578T, with SK-OV-3 and in the experiment with RXF 393 was > 50 µM (inactive) in each case. In addition, the GI50 in the experiment with MDA-MB-435, with RPMI-8226, in the experiment with SK-MEL-2, with SK-MEL-5, in the experiment with MDA-N and in the experiment with SW-620 was > 50 µM (inactive) throughout. The GI50 in the experiment with DU-145, in the experiment with K562, with PC-3, with SF-268, in the experiment on TK-10 and in the experiment with NCI-H460 was > 50 µM (inactive) throughout.
